{"source": "patent US20260000496A1", "about": "“MATERIALS AND METHODS FOR DRUG-INDUCED GINGIVAL OVERGROWTH” (Optimed Technology, Inc., priority 2019, published 2026)", "key": {"TNF-α": {"tested_on": "TNF-α", "assay": "TNF-α ELISA of mice gingival tissue lysates", "assay_type": "in vivo", "settings": "n=5, p<0.05", "protocol": "Enzyme linked immunosorbent assay (ELISA). ELISA was conducted with a mouse TNF-α ELISA Kit (PeproTech, USA) and TGF-β Emax ImmunoAssay System (Promega USA) to detect the TNF-α and TGF-β respectively. After normalization of the total cells or tissue protein lysates, 20 μg protein of each sample was used for the detection of TNF-α or TGF-β. ELISA was performed according to the manufacturers' instructions. For TNF-α, 100 ng/100 μl of capture antibody was added to each well of 96 well assay plate and incubated for overnight at room temperature. Blocking buffer of 200 μl per well were added to each well and incubated for 1 hour at room temperature. 20 μg of each protein sample as well as TNF-α standard (from 2 ng/ml to 0 ng/ml) were added and incubated the plates for 2 hours. 50 ng/100 μl of detection antibody was added in each well and incubated for 2 hours. Avidin-HRP conjugated antibody with a dilution of 1:2000 was added for 30 minutes. 100 μl per well of ABTS solution was added to each well and incubated until color change. Optical absorbing values were read at 405 and 450 nm and corrected by 650 nm. […] TMB One Solution was added for 15 minutes and the reaction were stopped using 100 μl of 1N hydrochloric acid and the absorbance at 450 nm were recorded on a plate reader. Data were analyzed using excel software. […]\nMice gingival tissue lysates were assessed for TNF-α levels using an ELISA (n=5)."}, "MyD88": {"tested_on": "MyD88", "assay": "Western blot of MyD88 in oral keratinocytes", "assay_type": "cell-based, human", "protocol": "Cell Culture. Normal human oral keratinocytes (NOKSI) and fibroblast (HOF) cells were maintained in Dulbecco […] Eagle's medium (Sigma-Aldrich, St. Louis, MO, USA) supplemented with 10% fetal bovine serum (Atlas Bio-logicals, Fort Collins, CO, USA) and 100 units/mL penicillin and 100 μg/mL streptomycin (LifeTechnologies, Carlsbad, CA, USA). Cells were grown in incubator at 37° C. in a humidified chamber with 5% CO2.\nDrugs treatment in cell culture. The cells were treated alone or with different combination of lipopolysaccharide, cyclosporine, phenytoin, and folic acid. All of them were purchased from Sigma-Aldrich (St. Louis, MO, USA). Each of them were used from 0 μg/ml to 40 μg/ml and the optimum concentration were found 10 μg/ml.\nWestern blot analysis. Cells were seeded in 60 mm plates with a density of 5×10^5 cells per plate and washed briefly with Dulbecco's phosphate-buffered saline (Gibco, Waltham, MA, USA). Whole cell lysates were prepared using RIPA lysis buffer containing protease inhibitor cocktail (Sigma-Aldrich). Total protein concentration was determined using the BCA reagent (Pierce, Waltham, MA, USA). 20 μg of total protein were resolved on sodium dodecyl sulfate-polyacrylamide gel electrophoresis and transferred to polyvinylidenedifluoride membrane and immunoblotted. The blots were incubated for 1 h in 1% bovine serum albumin (BSA) (Sigma-Aldrich) to block the non-specific bindings followed by over-night incubation in primary antibodies (MyD88 and pP65 from Cell Signaling Technology, and human LITAF ThermoFisher Sigma) at 4° C. on shaker. Next day, blots were washed for three times (10 min each) in Tris-buffered saline containing 1% Tween20 (TBST) followed by incubation with secondary antibody (Goat anti-rabbit IgG HRP) with 1:10,000 dilution for 1 h. Following washes, bands were visualized using gel documentation Imaging Systems (BioRad). The band intensities were quantified using software ImageJ (NIH, USA) and relative protein levels were normalized by β-actin (Cell Signaling). To perform the western blot of animal tissue samples, the gingival tissues were collected from both BABLB/c and C57BL/6 mice studies. The soft tissues were separated from the mandibular bone and then crunched. The Bradford assay was performed to measure the protein concentration of each sample. After normalization, 20 μg of whole tissue protein lysate were proceeded for western blot analysis."}}, "data": [{"smiles": "Nc1nc2ncc(CNc3ccc(C(=O)N[C@@H](CCC(=O)O)C(=O)O)cc3)nc2c(=O)[nH]1", "note": "[folic acid]", "values": [{"measurement": "TNF-α levels in mice gingival tissue lysates", "setting": "TNF-α", "value": "reduced the expression of TNF-α"}, {"measurement": "MyD88 protein level", "setting": "MyD88; LPS, CSA, FA each 10 μg/ml, 24 hours", "value": "inhibits CSA-induced expression"}, {"measurement": "amount of MYD88 protein", "setting": "MyD88; LPS, Phe, FA each 10 μg/ml, 24 hours", "value": "MyD88 expression is reduced"}, {"measurement": "MyD88 by western blot, dose-dependent effects of FA", "setting": "MyD88; different concentration of folic acid, 24 hrs", "value": "inhibition of MyD88"}, {"measurement": "MyD88 by western blot, kinetics of downregulation", "setting": "MyD88; different time points, FA 10 μg/ml", "value": "inhibition of MyD88"}, {"measurement": "MyD88 by western blot", "setting": "MyD88; normal oral keratinocyte cells, FIG. 35", "value": "downregulation"}]}]}
